Test system: diet-induced (DIO) mice
Test: Body weight study in diet-induced (DIO) mice (Example 9)
Format: in vivo, C57BL/6NTac mice
Details: gavage BID (DA 92.4 mg/kg, CQL 50 mg/kg)
Description: This example provides results of a study of DA plus another compound (CQL) on body weight in diet-induced (DIO) mice. Adult C57BL/6NTac mice were fed with a high fat diet (60%). […] The study period was for 56 days+2-3 days testing period afterward. Body weight change measure 3× per week, food and water consumption on days 0, 12, 28, 42 and 56. Metabolic biomarkers were measured on days 28 and 56. Cytokine analysis on Days 28 and 56. Serum levels of GLP-1, GLP-2, and CCK at 1 h after dosing on Days 1 and 56, and at 2 h after dosing on Day 7 (dosing (>6 h fasting prior to dosing until after blood collection); and serum level of PPY on Day 56.

Oc1c(I)cc(Cl)c2cccnc12 [CQL]
Serum HbA1c level at Day 28: significantly reduced | Serum HbA1c level at Day 56: considerably increased | Daily water intake at Day 28 (vs vehicle): significantly decreased
